The test system of one test is rat pulmonary artery. The experiment in a line: Rat pulmonary artery ring relaxation (endogenous tetrahydrobiopterin present). Conditions: rat pulmonary artery, normal or DAHP-treated. Here is the method: Rings (5 mm long) of rat pulmonary artery and aorta, were supported on a pair of intraluminal wires at 1 gm tension for one hour and then contracted with their EC50 phenylephrine concentration, which for pulmonary artery was 3.6×10^−8 M (derived from preliminary experiments) and for aorta was 11.8×10^−8 M (from the previously published literature). The rings were then relaxed with carbachol (10 μM). If the relaxation to carbachol was >75%, then the tissues were used to generate dose responses by addition of tetrahydrobiopterin (BH4) or the analogues. Stock BH4 was stored at −20° C. and the dilutions were prepared using saline just before adding the drug into the bath. Solutions of analogues were stored at 4° C. Cumulatively increasing concentrations of the analogues were added to the bath and the extent of relaxation was measured when it had stabilised. Another ring from the same rat was treated in parallel with the solvent for the analogue. The solvent used was NH4OH. The results are shown graphically in FIGS. 1 and 2.

For another test, the target named is T1, iNOS (Mus musculus, UniProt P29477).
T1 construct: stimulated macrophages that produce iNOS; endogenous in cells; host or cells: primary mouse macrophages (from femur), LPS-stimulated, DAHP-treated
T1 sequence (P29477 whole entry): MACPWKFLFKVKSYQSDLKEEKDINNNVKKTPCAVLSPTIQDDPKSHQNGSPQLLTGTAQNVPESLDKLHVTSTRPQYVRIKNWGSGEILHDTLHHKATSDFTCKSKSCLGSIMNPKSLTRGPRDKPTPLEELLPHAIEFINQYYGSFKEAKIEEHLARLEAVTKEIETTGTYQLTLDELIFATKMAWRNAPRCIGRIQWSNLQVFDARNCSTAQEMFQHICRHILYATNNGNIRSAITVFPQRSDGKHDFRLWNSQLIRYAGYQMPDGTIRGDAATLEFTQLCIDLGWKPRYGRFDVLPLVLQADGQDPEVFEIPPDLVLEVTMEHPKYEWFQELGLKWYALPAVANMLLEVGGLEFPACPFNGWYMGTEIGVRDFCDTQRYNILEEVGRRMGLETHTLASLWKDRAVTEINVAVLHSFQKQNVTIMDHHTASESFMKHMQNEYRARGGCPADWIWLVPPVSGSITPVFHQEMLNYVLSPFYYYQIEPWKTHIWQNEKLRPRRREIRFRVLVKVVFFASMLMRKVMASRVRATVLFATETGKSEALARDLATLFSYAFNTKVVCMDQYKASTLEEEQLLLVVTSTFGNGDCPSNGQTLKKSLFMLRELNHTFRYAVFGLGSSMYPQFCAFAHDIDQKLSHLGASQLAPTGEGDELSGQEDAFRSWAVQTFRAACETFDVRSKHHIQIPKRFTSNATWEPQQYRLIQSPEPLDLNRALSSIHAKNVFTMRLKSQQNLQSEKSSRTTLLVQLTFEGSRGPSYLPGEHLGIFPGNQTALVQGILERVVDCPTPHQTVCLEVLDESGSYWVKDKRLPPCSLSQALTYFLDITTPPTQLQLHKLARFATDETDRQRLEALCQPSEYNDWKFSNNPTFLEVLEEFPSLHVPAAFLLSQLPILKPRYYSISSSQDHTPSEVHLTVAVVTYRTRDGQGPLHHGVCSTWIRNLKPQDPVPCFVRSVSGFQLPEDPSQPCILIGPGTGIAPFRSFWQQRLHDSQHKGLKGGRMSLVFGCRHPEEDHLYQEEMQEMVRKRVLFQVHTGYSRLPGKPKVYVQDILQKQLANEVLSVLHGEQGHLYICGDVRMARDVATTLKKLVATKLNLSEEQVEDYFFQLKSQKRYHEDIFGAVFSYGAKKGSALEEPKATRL
The experiment in a line: Macrophage assay (iNOS), macrophages depleted of tetrahydrobiopterin by DAHP. The class given is cell-based. Conditions: 72 h; tested at 1 microM in macrophages; P = promotes NOS activity; read-out: iNOS effect *H155.

Procedure for iNOS: This is a cell based assay with lipopolysaccharide stimulated macrophages in which nitric oxide is produced by the action of iNOS. Primary cultures of macrophage cells isolated from mouse femur were produced over a 7 day period. At this stage the cells were seeded into 96-well culture plates at a density of 2×10^5 cells per well. After further incubation for 24 hrs, the well media was changed and the relevant treatment was introduced. The cells were then incubated for a further 72 hrs before 50 μl was removed from each well and combined with 100 μl of Greiss reagent for NO2 determination. All treatments were performed in triplicate. In each plate, 3 wells were designated control i.e. media change only-no LPS. These samples represent basal NO2 output over 72 hrs. 3 wells were used for LPS (0.5 μg/ml) stimulation alone and 3 wells were used for LPS+0.05% DMSO. This DMSO concentration was present in all subsequent analogue treated wells. All analogues were tested at 1.0 and 10 μM. In another set of experiments, the assay was repeated with the inclusion of a step to deplete endogenous tetrahydrobiopterin as in the artery ring studies. DAHP pre-treatment was employed to deplete the macrophage cells of endogenous tetrahydrobiopterin. In these experiments, DAHP (10^−2 M) was added to the cells for 24 hrs prior to seeding into 96-well plates and for 24 hrs following the seeding procedure. Thereafter, DAHP was present throughout the analogue treatment period of 72 hrs. […] Macrophages were initially depleted of tetrahydrobiopterin by incubation with DAHP.

As for `C[C@H](O)[C@H](O)[C@H]1CNc2nc(N)[nH]c(=O)c2N1` [tetrahydrobiopterin, reference compound], the “concentrations of tetrahydrobiopterin causing contraction” value in the test with rat pulmonary artery is recorded as “above 3 μM”.
With `Nc1nc2ncc(C=O)nc2c(=O)[nH]1` [wsg1003, 2-Amino-4-oxo-3,4-dihydro-pteridine-6-carbaldehyde], on iNOS, the activation at 1 µM was in the range of 20 to 50%.
Take `CC1(C)Nc2nc(N)[nH]c(=O)c2N=C1CO` [wsg1004, 2-Amino-6-hydroxymethyl-7,7-dimethyl-7,8-dihydro-3H-pteridin-4-one]: at iNOS, the activation at 1 µM was in the range of 20 to 50%.
Regarding `Nc1nc2ncc(C(=O)O)nc2c(=O)[nH]1` [wsg1005, 2-Amino-4-oxo-3,4-dihydro-pteridine-6-carboxylic acid], the activation at 1 µM on iNOS fell in the range of 20 to 50%.
On the same count and under the same terms, the same measure for `CCC1=Nc2c(nc(N)[nH]c2=O)NC1(C)C` [wsg1006, 2-Amino-6-ethyl-7,7-dimethyl-7,8-dihydro-3H-pteridin-4-one]: 20 to 50%; for `CC12CCCCC1=Nc1c(nc(N)[nH]c1=O)N2` (stereo not shown) [wsg1007, 2-Amino-9a-methyl-6,7,8,9,9a,10-hexahydro-3H-benzo[g]pteridin-4-one]: 20 to 50%; for `CC12CCCC1(S(=O)(=O)O)Nc1c(nc(N)[nH]c1=O)N2` (stereo not shown) [wsg1008, 6-Amino-3a-methyl-8-oxo-1,2,3,3a,4,7,8,9-octahydro-4,5,7,9-tetraaza-cyclopenta[b]naphthalene-9a-sulfonic acid]: 20 to 50%.
On the same count and under the same terms, the same measure for `Cc1nc2nc(N)[nH]c(=O)c2nc1C` [wsg1009, 2-Amino-6,7-dimethyl-3H-pteridin-4-one]: 20 to 50%; for `CC1Nc2nc(N)[nH]c(=O)c2NC1C` (stereo not shown) [wsg1010, 2-Amino-6,7-dimethyl-4-oxo-3,4,5,6,7,8-hexahydro-pteridin-5-ium Cl-]: 20 to 50%; for `CC1=Nc2c(nc(N)[nH]c2=O)NC1C` (stereo not shown) [wsg1011, 2-Amino-6,7-dimethyl-4-oxo-3,4,7,8-tetrahydro-pteridin-8-ium Cl-]: 20 to 50%.
Still for that read-out and setting: the same measure for `CC1(C)Nc2nc(N)[nH]c(=O)c2N=C1Cc1ccccc1` [wsg1012, 2-Amino-6-benzyl-7,7-dimethyl-7,8-dihydro-3H-pteridin-4-one]: 20 to 50%; for `CCC1(CC)Nc2nc(N)[nH]c(=O)c2N=C1CO` [wsg1014, 2-Amino-7,7-diethyl-6-hydroxymethyl-7,8-dihydro-3H-pteridin-4-one]: less than 20%; for `CC1(CCc2ccccc2)Nc2nc(N)[nH]c(=O)c2N=C1C=O` (stereo not shown) [wsg1016, 2-Amino-7-methyl-4-oxo-7-phenethyl-3,4,7,8-tetrahydro-pteridine-6-carbaldehyde]: less than 20%.
Turning to `CC1(C)Nc2nc(N)[nH]c(=O)c2N=C1/C=C/c1ccc(Cl)cc1` [wsg1017, 2-Amino-6-[2-(4-chloro-phenyl)-vinyl]-7,7-dimethyl-7,8-dihydro-3H-pteridin-4-one], the activation at 1 µM at iNOS was more than 50%.
Same read-out and setting: the same measure for `CC1(CCc2ccccc2)Nc2nc(N)[nH]c(=O)c2N=C1CO` (stereo not shown) [wsg1018, 2-Amino-6-hydroxymethyl-7-methyl-7-phenethyl-7,8-dihydro-3H-pteridin-4-one]: 20 to 50%; for `CC1=Nc2c(nc(N)[nH]c2=O)OC1(C)C` [wsg1019, 2-Amino-6,7,7-trimethyl-3,7-dihydro-pyrimido[4,5-b][1,4]oxazin-4-one]: less than 20%.

For the origin of these results see patent US20060194800A1, “Pteridine derivatives as nitric oxide synthase activators” (University of Strathclyde, priority 2005, published 2006).
